According to PMC10850501 (Nature Communications, 2024):
Where “and” joins values, the source holds several entries; their conditions need not be identical. Identical values can stand only once. Entries after “also recorded” stand apart in the source; their conditions may differ. Like-named read-outs stand apart in the source and are kept apart here. Peptide text beside a SMILES is read from it.

Legend:
[1] = tested on: SARS-CoV-2 live virus (B.1 lineage), Vero E6 cells; assay type: cell-based
[2] = tested on: SARS-CoV-2 Spike pseudotyped viruses, HEK-293T-ACE2 cells; assay type: cell-based, SARS-CoV-2 (Wuhan-Hu-1 Spike); settings: for inhibition of pseudovirus, in words: 10 µM
A549 cells = experiment: Cytocompatibility (CCK8); assay type: cell-based, human; settings: human alveolar epithelial A549 cells; 0.01-1 mM
Procedure: (§1) Cytocompatibility of the peptides was evaluated at 1, 0.1, and 0.01 mM with A549 cells (ATCC CCL-185) cultured in complete media consisting of 90% F-12K and 10% FBS. The A549 cells were utilized after their first passage and seeded at 10,000 cells/well in a 96-well plate for 24 hours. The conditions were prepared in serum-free A549 media and introduced into the wells for 6 hours, after which the condition media were aspirated, the wells were washed once with PBS, and 10 µL of CCK8 was added to 100 µL of PBS[32]. The plate was incubated for 1 hour and read on a Tecan M200 Infinite plate reader at an absorbance of 450 nm with a reference wavelength of 650 nm. The results were analyzed and normalized to the serum-free media control[28],[32],[76].

Cytocompatibility (CCK8) = assay type: cell-based, human; settings: human, A549 cells, read-out: cytocompatibility, normalized to serum free media; for viability at 6 h, 10 µM: 0.01 mM peptide; for viability at 6 h, 100 µM: 0.1 mM peptide; for viability at 6 h, 1000 µM: 1 mM peptide
Procedure: as §1

[3] = Acute IV pharmacokinetics; assay type: in vivo, rat (female Wistar)
Procedure: (§2) Female Wistar rats (225–250 g, 8–12 weeks old) were observed and acclimatized for 2 weeks prior to running the studies. They were housed in a controlled environment with temperature at […] and 40–70% humidity. They were kept in an alternating 12-hour light/dark cycle, and food, and water was provided as pellets ad libitum. Female Wistar Rats were used for the pharmacokinetics and the drug clearance analysis from the blood. The two hydrogels (ESBP2 and ESBP3) at 10 mg/ml concentration were injected into the rats via the lateral tail vein. For subcutaneous implants, the substance was injected between the shoulder blades and above the lumbar vertebrae, 200 μL each, using a 25-gauge needle. The hydrogel bolus was prepared with 0.9% saline and was injected within 1–2 minutes. The volume injected was approximately 1% of the total body weight of the rat, which was calculated prior to the dosing. The initial blood draw was performed for baseline, and the subsequent blood collection was performed from the lateral vein using 25 g butterfly needles.
Rat blood samples were collected at 0, 5, 15, 30 minutes, and 1, 2, 4, 8, and 24 hours post-injection timepoints for Acute PK and were aliquoted out into heparinized tubes to prevent coagulation and stored on top of ice packs. Blood collected in K2EDTA anticoagulant tubes was processed to plasma frozen via centrifugation at 13000 RCF for 10 minutes at 4 °C and stored at −80 °C till analysis using HPLC. The body weight was recorded every day prior to the blood collection.

[4] = Daily repeat IV dosing, 10 days (chronic PK/safety); assay type: in vivo, rat (female Wistar)
Procedure: as §2
Female Wistar rats (225–250 g, 8–12 weeks old) were weighed and repeatedly dosed (1% by weight) IV with ESBP2 or ESBP3 daily at 10 mg/mL (~3 mM). Rat blood samples were collected daily prior to injection via tail vein. Post 10 days of treatment, animals were allowed to recover for 10 days and then sacrificed. Plasma was stored and analyzed as above. The body weight was recorded every day prior to the blood collection.

[5] = replicate 1, CCK8, 6 h exposure, absorbance 450 nm

CC[C@H](C)[C@H](NC(=O)CNC(=O)[C@H](CCC(=O)O)NC(=O)[C@H](CC(C)C)NC(=O)[C@H](CO)NC(=O)[C@H](CC(C)C)NC(=O)[C@H](CO)NC(=O)[C@H](CC(C)C)NC(=O)[C@H](CO)NC(=O)[C@H](CC(C)C)NC(=O)[C@H](CO)NC(=O)[C@H](CC(C)C)NC(=O)[C@H](CO)NC(=O)[C@H](CC(C)C)NC(=O)[C@H](CO)NC(=O)[C@H](CCC(=O)O)NC(C)=O)C(=O)N[C@@H](CCC(=O)O)C(=O)N[C@@H](CCC(=O)O)C(=O)N[C@@H](CCC(N)=O)C(=O)N[C@@H](C)C(=O)N[C@@H](CCCCN)C(=O)N[C@H](C(=O)N[C@@H](Cc1ccccc1)C(=O)N[C@@H](CC(C)C)C(=O)N[C@@H](CC(=O)O)C(=O)N[C@@H](CCCCN)C(=O)N[C@@H](Cc1ccccc1)C(=O)N[C@@H](CC(N)=O)C(=O)N[C@@H](Cc1c[nH]cn1)C(=O)N[C@@H](CCC(=O)O)C(=O)N[C@@H](C)C(=O)N[C@@H](CCC(=O)O)C(=O)N[C@@H](CC(=O)O)C(=O)N[C@@H](CC(C)C)C(=O)N[C@@H](Cc1ccccc1)C(=O)N[C@@H](Cc1ccc(O)cc1)C(=O)N[C@@H](CCC(N)=O)C(=O)N[C@@H](CO)C(N)=O)[C@@H](C)O [ESBP1]
live virus inhibition, in words [1]: significant improvement in viral inhibition | Relative PFU ([1]; 10 µM): 51.2258 and 58.5437 and 80.4976 | Normalized, Average [2]: 0.2588 | inhibition of pseudovirus, in words [2]: inhibited pseudovirus to a similar degree

CC[C@H](C)[C@H](NC(=O)CNC(=O)[C@H](CCCCN)NC(=O)[C@H](CC(C)C)NC(=O)[C@H](CO)NC(=O)[C@H](CC(C)C)NC(=O)[C@H](CO)NC(=O)[C@H](CC(C)C)NC(=O)[C@H](CO)NC(=O)[C@H](CC(C)C)NC(=O)[C@H](CO)NC(=O)[C@H](CC(C)C)NC(=O)[C@H](CO)NC(=O)[C@H](CC(C)C)NC(=O)[C@H](CO)NC(=O)[C@H](CCCCN)NC(C)=O)C(=O)N[C@@H](CCC(=O)O)C(=O)N[C@@H](CCC(=O)O)C(=O)N[C@@H](CCC(N)=O)C(=O)N[C@@H](C)C(=O)N[C@@H](CCCCN)C(=O)N[C@H](C(=O)N[C@@H](Cc1ccccc1)C(=O)N[C@@H](CC(C)C)C(=O)N[C@@H](CC(=O)O)C(=O)N[C@@H](CCCCN)C(=O)N[C@@H](Cc1ccccc1)C(=O)N[C@@H](CC(N)=O)C(=O)N[C@@H](Cc1c[nH]cn1)C(=O)N[C@@H](CCC(=O)O)C(=O)N[C@@H](C)C(=O)N[C@@H](CCC(=O)O)C(=O)N[C@@H](CC(=O)O)C(=O)N[C@@H](CC(C)C)C(=O)N[C@@H](Cc1ccccc1)C(=O)N[C@@H](Cc1ccc(O)cc1)C(=O)N[C@@H](CCC(N)=O)C(=O)N[C@@H](CO)C(N)=O)[C@@H](C)O [KSBP1]
Normalized, Average [2]: 0.8193 | inhibition of pseudovirus, in words [2]: significant decrease in inhibitory effect

CSCC[C@H](NC(=O)[C@H](Cc1ccccc1)NC(=O)[C@H](CCCCN)NC(=O)[C@H](CC(=O)O)NC(=O)[C@H](CC(C)C)NC(=O)[C@H](Cc1ccccc1)NC(=O)[C@@H](NC(=O)[C@H](CCCCN)NC(=O)[C@H](CC(C)C)NC(=O)[C@H](CCC(N)=O)NC(=O)[C@H](CCC(=O)O)NC(=O)[C@H](CCC(=O)O)NC(=O)[C@H](CC(C)C)NC(=O)[C@H](C)NC(=O)[C@H](CO)NC(C)=O)[C@@H](C)O)C(=O)N[C@@H](Cc1c[nH]cn1)C(=O)N[C@@H](CCC(=O)O)C(=O)N[C@@H](CC(C)C)C(=O)N[C@@H](CCC(=O)O)C(=O)N[C@@H](CC(=O)O)C(=O)N[C@@H](CC(C)C)C(=O)N[C@@H](CC(C)C)C(=O)N[C@@H](Cc1ccc(O)cc1)C(=O)N[C@@H](CCC(N)=O)C(=O)N[C@@H](CC(C)C)C(=O)N[C@@H](C)C(=O)N[C@@H](CC(C)C)C(N)=O [SBP2, reference compound] (Ac-SALEEQLKTFLDKFMHELEDLLYQLAL-NH2)
in vitro live virus inhibition, in words [1]: inhibition of live virus | cytocompatibility, in words (A549 cells): excellent cytocompatibility | viability at 6 h, 10 µM (Cytocompatibility (CCK8); replicate 1, CCK8, 6 h): 105% | viability at 6 h, 10 µM (Cytocompatibility (CCK8); replicate 2, CCK8, 6 h): 92.2% | viability at 6 h, 100 µM (Cytocompatibility (CCK8); replicate 1, CCK8, 6 h): 107% | viability at 6 h, 100 µM (Cytocompatibility (CCK8); replicate 2, CCK8, 6 h): 104% | viability at 6 h, 100 µM (Cytocompatibility (CCK8); replicate 3, CCK8, 6 h): 91.4% | viability at 6 h, 1000 µM (Cytocompatibility (CCK8); [5]): 85.7% | viability at 6 h, 1000 µM (Cytocompatibility (CCK8); replicate 2, CCK8, 6 h): 122% | viability at 6 h, 1000 µM (Cytocompatibility (CCK8); replicate 3, CCK8, 6 h): 150%

CC[C@H](C)[C@H](NC(=O)[C@H](Cc1ccc(O)cc1)NC(=O)[C@@H](NC(=O)[C@H](CCCCN)NC(=O)[C@H](Cc1ccc(O)cc1)NC(=O)[C@H](CCC(N)=O)NC(C)=O)[C@@H](C)O)C(=O)N[C@@H](CC(=O)O)C(=O)N[C@@H](CCCCN)C(=O)N[C@@H](CC(N)=O)C(=O)N[C@@H](CC(N)=O)C(=O)N[C@@H](Cc1c[nH]cn1)C(=O)N[C@@H](Cc1ccc(O)cc1)C(=O)N[C@@H](C)C(=O)N[C@@H](CCC(=O)O)C(=O)N[C@@H](CC(=O)O)C(=O)N[C@@H](CCC(=O)O)C(=O)N[C@@H](CCCNC(=N)N)C(=O)N[C@@H](Cc1ccc(O)cc1)C(=O)N[C@@H](CCCCN)C(N)=O [SBP3] (Ac-QYKTYIDKNNHYAEDERYK-NH2)
Comparative, Average [1]: 72.3704 | live virus plaque inhibition, in words [1]: no major differences | viability at 6 h, 10 µM (Cytocompatibility (CCK8); replicate 1, CCK8, 6 h): 104% | viability at 6 h, 10 µM (Cytocompatibility (CCK8); replicate 2, CCK8, 6 h): 96.9% | viability at 6 h, 100 µM (Cytocompatibility (CCK8); replicate 1, CCK8, 6 h): 77.8% | viability at 6 h, 100 µM (Cytocompatibility (CCK8); replicate 2, CCK8, 6 h): 94.4% | viability at 6 h, 100 µM (Cytocompatibility (CCK8); replicate 3, CCK8, 6 h): 95.5% | viability at 6 h, 1000 µM (Cytocompatibility (CCK8); [5]): 144% | viability at 6 h, 1000 µM (Cytocompatibility (CCK8); replicate 2, CCK8, 6 h): 139%

Ac-ESLSLSLSLSLSLEGSALEEQLKTFLDKFMHELEDLLYQLAL-NH2 [ESBP2]
eliminated by ([3]; ESBP2 IV bolus through the tail vein, Wistar rats (n=8)): ≤ 8 h | clearance from the circulation (time) ([3]; acute 24-hour single-dose IV bolus PK, rats): 4 to 8 h | Tmax ([3]; female, rat, 10 mg/mL, ESBP2 IV bolus through the tail vein, Wistar rats (n=8), plasma, HPLC, read-out: time of concentration peak (converted)): 30 min | Cmax ([3]; female, rat, plasma, 10 mg/mL, ESBP2 IV bolus, Wistar rats (n=8), at 30 minutes following injection, read-out: observed maximum concentration): 36000 ng/mL | AUC ([3]; female, rat, plasma, 10 mg/mL, ESBP2 IV bolus, Wistar rats (n=8), read-out: area under the curve): 47000 ng·h/mL | repeat IV dosing safety, in words ([4]; daily IV for 10 days, ~1 w% (10 mg/mL), 225-250 g adult rats): no adverse effect | significant changes in body weight (ESBP3 also animal behavior, adverse events, gross organ morphology) compared to carrier ([4]; daily repeated IV dosing for 10 days, rats): no | in vitro live virus inhibition, in words [1]: inhibition of live virus; also recorded: significantly improved in vitro live virus inhibition | cytocompatibility, in words (A549 cells): excellent cytocompatibility | viability at 6 h, 10 µM (Cytocompatibility (CCK8); replicate 1, CCK8, 6 h): 94.5% | viability at 6 h, 10 µM (Cytocompatibility (CCK8); replicate 2, CCK8, 6 h): 98.3% | viability at 6 h, 100 µM (Cytocompatibility (CCK8); replicate 1, CCK8, 6 h): 129% | viability at 6 h, 100 µM (Cytocompatibility (CCK8); replicate 2, CCK8, 6 h): 132% | viability at 6 h, 100 µM (Cytocompatibility (CCK8); replicate 3, CCK8, 6 h): 196% | viability at 6 h, 1000 µM (Cytocompatibility (CCK8); [5]): 117% | viability at 6 h, 1000 µM (Cytocompatibility (CCK8); replicate 2, CCK8, 6 h): 104% | viability at 6 h, 1000 µM (Cytocompatibility (CCK8); replicate 3, CCK8, 6 h): 94.1%
